# Laboratory results: patent US11793824B2, “Administration of nicotinamide mononucleotide in the treatment of disease” (Washington University, priority 2013, dated 2023)
# Experiments:
# [1] = Electroretinography (ERG) of aged mice; assay type: in vivo, mouse
# Experimental: (§1) A 12 month-long NMN administration study using wild-type mice under a regular chow-fed condition was conducted. NMN was administered through drinking water, and two doses of NMN, 100 and 300 mg/kg body weight/day, were tested. […] To assess beneficial and possible adverse effects of NMN, a variety of physiological parameters were periodically monitored, including body weight, body temperature, food and water intake, fed and fasted blood glucose levels, fed and fasted plasma lipid panels, and glucose and insulin tolerance, in NMN-administered and control mice. Blood chemistry, blood cell counts, urine strip test, and other physiological tests including physical activity test were also checked.
# In the long-term NMN administration study (See Methods; Administration of NMN through Drinking Water and Determination of NMN Stability and Toxicity), retinal function was evaluated by fundus biomicroscopy and electroretinography (ERG). FIG. 11 illustrates fundus biomicroscopy images from control and NMN-administered mice. For each group, five mice were examined, and two representative images are shown.
# FIG. 12A-C illustrates electroretinograms from control and NMN-administered mice. Amplitudes of scotopic a and b (FIG. 12A, FIG. 12B) and photopic b (FIG. 12C) waves over each stimulus range are shown. […] The data were analyzed with the two-way repeated ANOVA. […]
# [2] = system: Nampt Ad-Cre infected NSPCs; assay: Nampt Ad-Cre infected neurospheres with or without NMN: NAD+, proliferation, differentiation; assay type: cell-based, mouse
# Experimental: NAD+ levels were determined using an HPLC system (Shimadzu) with a Supelco LC-18-T column (15 cm×[…]; Sigma), as described previously (Yoshino et al, 2011).
# Neurospheres derived from Nampt^flox/flox mice were infected with Ad5 Cre recombinase- or b-galactosidase-expressing (LacZ, control) adenoviruses at an MOI of 100. All assessments were performed at least 6 days post infection.
# Neurospheres derived from Nampt^flox/flox mice were dissociated by trypsin digestion and seeded at similar cell densities in 24-well plates with fresh growth medium. Every 24 hours, neurospheres from triplicate wells were collected, dissociated, and counted on a hemocytometer using 0.2% trypan blue exclusion to distinguish viable cells. For analysis of neurosphere diameter, the largest neurosphere in each well was imaged (20× objective) and the diameter was calculated using ImageJ. For secondary neurosphere analysis, the total number of neurospheres in each well was counted at 7 days post-plating.
# Three to five days after their first passage, neurospheres were trypsinized, washed with dissociation medium, and plated at 150,000 cells per well in 24-well plates in differentiation medium [growth medium without FGF and EGF and with BDNF (5 ng/mL, Peprotech, 450-02) on glass coverslips coated with poly-D-lysine (50 ug/mL; Sigma) and laminin (20 ug/mL; BD Biosciences)]. 6-well plates were coated with poly-D-lysine (20 ug/mL) and laminin (10 ug/mL). […] The percentage of oligodendrocyte precursor cells (OPCs) generated was analyzed after 2 d of differentiation, and the percentage of differentiated oligodendrocytes was analyzed after 6-7 d of differentiation. […]
# Nampt Ad-Cre NSPCs were unable to increase their cell number between 24 and 144 hours of culture. […] Since NSPC self-renewal decisions can also contribute to cell number, the inventors assessed secondary neurosphere formation, an assay that quantifies the ability of neurosphere inhabitant cells to reformulate neurospheres upon dissociation. […]
# [3] = Bone mineral density by dual-energy X-ray absorptiometry (DXA); assay type: in vivo, mouse; settings: 12-month time point, 17-18 month old mice
# Experimental: as §1
# The inventors measured the bone mineral density (BMD) of control and NMN-treated mice at the 12-month time point of a 12 month long NMN administration experiment by dual-energy X-ray absorptiometry (DXA). At this time point, mice were 17-18 month old.
structure (smiles),measurement,setting,value
"NC(=O)c1ccc[n+]([C@@H]2O[C@H](COP(=O)([O-])O)[C@@H](O)[C@H]2O)c1 [NMN, nicotinamide mononucleotide]",scotopic a wave amplitudes,"[1]; at 0 and 5 db (300 mg/kg), 5 db (100 mg/kg), aged mice",significantly higher amplitudes
same,photopic b wave,"[1]; entire range of stimulus, 100 and 300 mg/kg groups",trend of improvement
same,rescue of reduction in NAD+ levels in Nampt Ad-Cre NSPCs,"[2]; NMN 100 μM, 48 hours, eight days post deletion",rescued
same,proliferative potential of Nampt Ad-Cre cells,[2]; NMN 200 μM,fully reactivate
same,"defects in differentiation (oligodendrogenesis, Nestin+ retention) of Nampt Ad-Cre NSPCs","[2]; treatment with NMN, 6-7 days of differentiation",rescued defects in oligodendrogenesis
same,increase in the BMD,[3]; 100 mg/kg group,2.8%
same,increase in the BMD,[3]; 300 mg/kg group,5.9%
